Results published in ChEMBL document CHEMBL1201862, “PubChem BioAssay data set” (2004).
Where a name gives a salt, the structure may show the parent alone.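 A five-concentration, 48-hour dose response in 96-well plates underlies each endpoint, interpolated linearly between surrounding concentrations. The concentration for 50% growth inhibition is given as GI50.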 Activity calls are given as the source filed them. Cut-off read from the data, not from the text of the source: active = GI50 up to about 1.1 µM and inactive = higher.

What was measured:
Test in all cases: growth of human tumour cells (NCI), 48 h
[1] = test system: ACHN
[2] = test system: BT-549
[3] = test system: HOP-62
[4] = test system: HT-29
[5] = test system: IGROV-1
[6] = test system: K562
[7] = test system: KM12
[8] = test system: MDA-N
[9] = test system: NCI-H23
[10] = test system: OVCAR-3
[11] = test system: OVCAR-8
[12] = test system: PC-3
[13] = test system: RXF 393
[14] = test system: SNB-19
[15] = test system: SNB-75
[16] = test system: SR
[17] = test system: SW-620
[18] = test system: TK-10
[19] = test system: HOP-92
[20] = test system: OVCAR-4

SMILES	GI50 [1]	GI50 [2]	GI50 [3]	GI50 [4]	GI50 [5]	GI50 [6]	GI50 [7]	GI50 [8]	GI50 [9]	GI50 [10]	GI50 [11]	GI50 [12]	GI50 [13]	GI50 [14]	GI50 [15]	GI50 [16]	GI50 [17]	GI50 [18]	GI50 [19]	GI50 [20]
CN1CN(c2ccccc2)C2(CCN(Cc3csc4ccccc34)CC2)C1=O	17.6 µM (inactive)	7.35 µM (inactive)	19.6 µM (inactive)	4.83 µM (inactive)	10.8 µM (inactive)	5.45 µM (inactive)	11.5 µM (inactive)	15.2 µM (inactive)	6.44 µM (inactive)	8.85 µM (inactive)	16.2 µM (inactive)	9.27 µM (inactive)	16.6 µM (inactive)	38.4 µM (inactive)	23.7 µM (inactive)	4.45 µM (inactive)	13.3 µM (inactive)	12.9 µM (inactive)	–	–
O=C(CCc1ccc(O)c(O)c1)NCCc1cc(O)cc(O)c1	> 100 µM (inactive)	> 100 µM (inactive)	> 100 µM (inactive)	> 100 µM (inactive)	> 100 µM (inactive)	25.7 µM (inactive)	> 100 µM (inactive)	23.8 µM (inactive)	> 100 µM (inactive)	> 100 µM (inactive)	> 100 µM (inactive)	> 100 µM (inactive)	> 100 µM (inactive)	> 100 µM (inactive)	> 100 µM (inactive)	> 100 µM (inactive)	> 100 µM (inactive)	> 100 µM (inactive)	> 100 µM (inactive)	–
O=[N+]([O-])c1cccc2nc3ccccc3c(NCCc3cccc[n+]3[O-])c12	0.0103 µM (active)	< 0.0165 µM (active)	< 0.0177 µM (active)	0.0103 µM (active)	–	0.0168 µM (active)	< 0.0328 µM (active)	0.0153 µM (active)	< 0.0115 µM (active)	< 0.0385 µM (active)	< 0.0176 µM (active)	< 0.0391 µM (active)	0.0196 µM (active)	0.128 µM (active)	< 0.0438 µM (active)	< 0.01 µM (active)	< 0.01 µM (active)	< 0.0486 µM (active)	< 0.0183 µM (active)	0.0541 µM (active)
O=c1c2c3c(sc2nc2n1sc1nc4sc5c(c4c(=O)n12)CCCC5)CCCC3	61.5 µM (inactive)	21.9 µM (inactive)	> 100 µM (inactive)	41.2 µM (inactive)	> 100 µM (inactive)	25.1 µM (inactive)	> 89.7 µM (inactive)	> 51.3 µM (inactive)	30.6 µM (inactive)	24.2 µM (inactive)	56.6 µM (inactive)	54.5 µM (inactive)	21 µM (inactive)	92.9 µM (inactive)	–	25.8 µM (inactive)	28.8 µM (inactive)	89.1 µM (inactive)	51.2 µM (inactive)	18.7 µM (inactive)
COc1c(CC=C(C)C)c(O)c(C(CC(C)C)c2c(O)c3c(c(C(C)=O)c2O)OC(C(C)(C)O)C3)c(O)c1C(C)=O (stereo not drawn)	4.42 µM (inactive)	3 µM (inactive)	5.2 µM (inactive)	4.86 µM (inactive)	5.07 µM (inactive)	2.6 µM (inactive)	3.7 µM (inactive)	4.05 µM (inactive)	2.63 µM (inactive)	6.08 µM (inactive)	4.4 µM (inactive)	3.15 µM (inactive)	3.67 µM (inactive)	5.09 µM (inactive)	4.92 µM (inactive)	2.17 µM (inactive)	4.62 µM (inactive)	–	2.71 µM (inactive)	4.57 µM (inactive)
Cc1cn(C2CC(O)C(CO[Si](C)(C)C(C)(C)C)OC2OC(C)C)c(=O)[nH]c1=O (stereo not drawn)	50.5 µM (inactive)	44.9 µM (inactive)	–	20 µM (inactive)	29.8 µM (inactive)	49.3 µM (inactive)	49.5 µM (inactive)	36.1 µM (inactive)	39.6 µM (inactive)	20.6 µM (inactive)	33.5 µM (inactive)	33.6 µM (inactive)	34 µM (inactive)	74.8 µM (inactive)	> 100 µM (inactive)	31.2 µM (inactive)	49.4 µM (inactive)	39.5 µM (inactive)	32.2 µM (inactive)	44.5 µM (inactive)
CCOc1cc(-c2nc3ccccn3c2/N=C/c2cc(Br)ccc2O)ccc1O	47.5 µM (inactive)	29.6 µM (inactive)	20.3 µM (inactive)	42.1 µM (inactive)	20.6 µM (inactive)	24.2 µM (inactive)	–	46.1 µM (inactive)	39.8 µM (inactive)	9.29 µM (inactive)	21.2 µM (inactive)	18.8 µM (inactive)	16 µM (inactive)	21.3 µM (inactive)	5.62 µM (inactive)	35.6 µM (inactive)	65 µM (inactive)	21.1 µM (inactive)	21.1 µM (inactive)	14.1 µM (inactive)
CCOC(=O)C(=NN(C)c1ncccc1N)C(=O)OCC	–	> 100 µM (inactive)	> 100 µM (inactive)	65.6 µM (inactive)	61 µM (inactive)	25.4 µM (inactive)	> 100 µM (inactive)	34.8 µM (inactive)	45.5 µM (inactive)	30.7 µM (inactive)	38.3 µM (inactive)	62.5 µM (inactive)	84.9 µM (inactive)	> 100 µM (inactive)	> 100 µM (inactive)	36.2 µM (inactive)	27.6 µM (inactive)	79.3 µM (inactive)	23.3 µM (inactive)	97.3 µM (inactive)
Cc1ccc(C)c(NC(=O)/C(=N\N)C(c2cnc3ccc([N+](=O)[O-])cc3n2)[N+](=O)[O-])c1 (stereo not drawn)	14.5 µM (inactive)	> 100 µM (inactive)	40 µM (inactive)	65.8 µM (inactive)	51.9 µM (inactive)	> 100 µM (inactive)	47.9 µM (inactive)	> 100 µM (inactive)	70.8 µM (inactive)	61.1 µM (inactive)	37 µM (inactive)	50.7 µM (inactive)	> 100 µM (inactive)	–	> 100 µM (inactive)	74.1 µM (inactive)	> 100 µM (inactive)	> 100 µM (inactive)	> 100 µM (inactive)	18.4 µM (inactive)
O=C(O)COc1cc(-c2ccccc2)nc2ccc(F)cc12	> 100 µM (inactive)	> 100 µM (inactive)	> 100 µM (inactive)	> 100 µM (inactive)	> 100 µM (inactive)	> 100 µM (inactive)	> 100 µM (inactive)	> 100 µM (inactive)	> 100 µM (inactive)	> 100 µM (inactive)	> 100 µM (inactive)	> 100 µM (inactive)	–	> 100 µM (inactive)	> 100 µM (inactive)	> 100 µM (inactive)	> 100 µM (inactive)	0.0261 µM (active)	> 100 µM (inactive)	> 100 µM (inactive)
COc1ccc2c(c1)C1=NCCN(CCN(C)C)c3ccc([N+](=O)[O-])c(c31)N2	0.191 µM (active)	0.815 µM (active)	1.21 µM (inactive)	0.348 µM (active)	0.708 µM (active)	0.364 µM (active)	0.374 µM (active)	0.542 µM (active)	0.701 µM (active)	0.499 µM (active)	0.526 µM (active)	0.411 µM (active)	0.757 µM (active)	0.492 µM (active)	0.173 µM (active)	0.404 µM (active)	0.252 µM (active)	1.1 µM (active)	0.603 µM (active)	0.191 µM (active)
CCN1CCN(c2nc3ccc([N+](=O)[O-])cc3nc2C(=O)c2ccccc2)CC1	15.8 µM (inactive)	5.64 µM (inactive)	20.1 µM (inactive)	–	5.78 µM (inactive)	6.31 µM (inactive)	16.8 µM (inactive)	18.7 µM (inactive)	17.2 µM (inactive)	16.8 µM (inactive)	16.8 µM (inactive)	17.3 µM (inactive)	16.7 µM (inactive)	26 µM (inactive)	–	2.47 µM (inactive)	21 µM (inactive)	19.9 µM (inactive)	17.8 µM (inactive)	–
Cc1cc2c(cc1C)OC(=O)CC2	> 100 µM (inactive)	> 100 µM (inactive)	> 100 µM (inactive)	> 100 µM (inactive)	> 100 µM (inactive)	> 100 µM (inactive)	> 100 µM (inactive)	> 100 µM (inactive)	> 100 µM (inactive)	> 100 µM (inactive)	> 100 µM (inactive)	> 100 µM (inactive)	> 100 µM (inactive)	–	> 100 µM (inactive)	> 100 µM (inactive)	> 100 µM (inactive)	> 100 µM (inactive)	> 100 µM (inactive)	> 100 µM (inactive)
CN1[C@@H]2C[C@@H](OC(=O)[C@H](CO)c3ccccc3)C[C@H]1[C@@H]1O[C@@H]12 [SCOPOLAMINE HYDROBROMIDE]	> 100 µM (inactive)	> 100 µM (inactive)	> 100 µM (inactive)	> 100 µM (inactive)	> 100 µM (inactive)	> 100 µM (inactive)	> 100 µM (inactive)	> 100 µM (inactive)	> 100 µM (inactive)	> 100 µM (inactive)	> 100 µM (inactive)	> 100 µM (inactive)	> 100 µM (inactive)	–	–	> 100 µM (inactive)	> 100 µM (inactive)	> 100 µM (inactive)	> 100 µM (inactive)	> 100 µM (inactive)
